Experiments:
[1] = test system: U2OS cells; test: Cell Painting Assay (CPA); type: cell-based, human
Description: The described assay follows closely the method described by Bray et al.[15] Initially, 5 µL U2OS medium were added to each well of a 384-well plate (Revvity Phenoplate 384).
Subsequently, U2OS cell were seeded with a density of 1600 cells per well in 20 µL medium. The plate was incubated for 10 min at the ambient temperature, followed by an additional 4 h incubation (37 °C, 5% CO2). Compound treatment was performed with the Echo 520 acoustic dispenser (Beckman-Coulter) followed by incubation for 20 h (37 °C, 5% CO2). Subsequently, mitochondria were stained with Mito Tracker Deep Red (Thermo Fisher Scientific, Cat. No. M22426). The Mito Tracker Deep Red stock solution (1 mM) was diluted to a final concentration of 100 nM in prewarmed medium. The medium was removed from the plate leaving 10 µL residual volume and 25 µL of the Mito Tracker solution were added to each well. The plate was incubated for 30 min in darkness (37 °C, 5% CO2). To fix the cells […] of 18.5 % formaldehyde in PBS were added, resulting in a final formaldehyde concentration of […]. Subsequently, the plate was incubated for another 20 min in darkness (RT) and washed three times with 70 µL of PBS. (Agilent Washer Elx405). Cells were permeabilized by addition of 25 µL 0.1% Triton X-100 to each well, followed by 15 min incubation (RT) in darkness. The cells were washed three times with PBS leaving a final volume of 10 µL. To each well 25 µL of a staining solution were added, which contains 1% BSA, 5 µL/ml Phalloidin (Alexa594 conjugate, Thermo Fisher Scientific, A12381), 25 µg/ml Concanavalin A (Alexa488 conjugate, Thermo Fisher Scientific, Cat. No.
(Thermo Fisher Scientific, Cat. No. W11262) and 1.5 µM SYTO 14 solution (Thermo Fisher Scientific, Cat. No. S7576). The plate is incubated for 30 min (RT) in darkness and washed three times with 70 µl
PBS. After the final washing step, the PBS was not aspirated. The plates were sealed and centrifuged […]
The plates were prepared in triplicates with shifted layouts to reduce plate effects and imaged using a Micro XL High-Content Screening System (Molecular Devices) in 5 channels (DAPI: Ex350-400/ […]
The generated images were processed with the CellProfiler package (https://cellprofiler.org/, version 3.0.0) on a computing cluster of the Max Planck Society to extract 1716 cell features per microscope site. The data was then further aggregated as medians per well (9 sites -> 1 well), then over the three […]
Further analysis was performed with custom Python (https://www.python.org/) scripts using the Pandas (https://pandas.pydata.org/) and Dask (https://dask.org/) data processing libraries as well as the Scientific Python (https://scipy.org/) package (separate publication to follow).
From the total set of 1716 features, a subset of highly reproducible and robust features was determined using the procedure described by Woehrmann et al.[16] in the following way:
Two biological repeats of one plate containing reference compounds were analysed. For every feature, its full profile over each whole plate was calculated. If the profiles from the two repeats […]
set of 579 robust features out of the total of 1716 that was used for all further analyses.
The phenotypic profiles were compiled from the Z-scores of all individual cellular features, where the Z-score is a measure of how far away a data point is from a median value.
Specifically, Z-scores of test compounds were calculated relative to the Median of DMSO controls.
Thus, the Z-score of a test compound defines how many MADs (Median Absolute Deviations) the measured value is away from the Median of the controls as illustrated by the following formula:
z − score = […]
The phenotypic compound profile is then determined as the list of Z-scores of all features for one […]
(1 picture or pasted object on this page, not shown here)
In addition to the phenotypic profile, an induction value was determined for each compound as the […]
Induction [%] = number of features with abs. values > 3 […]

[2] = biological target: CHKA (Homo sapiens, UniProt P35790); test: PISA thermal profiling, K562 cell lysates; type: binding; set-up: endogenous in cells; conditions: 30 µM; for stabilisation of CHKA (PISA): K562 cell lysates; for effect_CETSA_Lysate (PISA amplitude), CHKA: K562 lysate, 15 min, n=3
Description: Experiments were performed as described earlier with few modifications. In short, 3 replicates of intact HepG2 cells were treated with 30 µM UNC0638, […] or corresponding volume of DMSO in medium-free experimental buffer for 60 min at 37 °C with end-over-end rotation. For lysates: Washed K562 cells were resuspended in medium-free experimental buffer and lysed by three freeze-thaw cycles. Lysate was centrifugated 20,000 × g for 20 min at 4 °C to remove cell debris. The cleared lysate was treated with 30 µM UNC0638, UNC0373 or corresponding volume of DMSO for 15 min at RT with end-over-end rotation. Each treated cell suspension or lysate was divided into 12 aliquots and subjected to a 12-step heat gradient from 44 °C to 64 °C. All the temperature points were pooled together to form […] individual samples. Soluble fraction was separated from precipitated proteins […]
by centrifugation at 30,000 × g for 20 min at 4 °C. The soluble fractions were collected to fresh tubes and further processed to be analysed with mass spectrometry. Sample handling, TMT labelling, LC-MS/MS analysis, protein identification and data analysis was performed as described earlier.[12] […]
Figure S3: Western blot of elution fractions after chemical pulldown with UNC0965 in MCF7 cell extract pre-incubated with indicated compounds (20 μM) or DMSO.
Figure S4: PISA thermal profiling results in K562 cell lysates. A) Volcano plots of UNC0638 and […]
Dashed lines represent amplitude > 0.05, < - 0.05 and log10(adjusted p-values) > 2 (two-sided two sample t-test, Benjamini-Hochberg corrected, n = 3).
6,924 proteins were identified. B) UNC0737 stabilises CHKA stronger than UNC0638. […]

Chain of CHKA (P35790 whole entry): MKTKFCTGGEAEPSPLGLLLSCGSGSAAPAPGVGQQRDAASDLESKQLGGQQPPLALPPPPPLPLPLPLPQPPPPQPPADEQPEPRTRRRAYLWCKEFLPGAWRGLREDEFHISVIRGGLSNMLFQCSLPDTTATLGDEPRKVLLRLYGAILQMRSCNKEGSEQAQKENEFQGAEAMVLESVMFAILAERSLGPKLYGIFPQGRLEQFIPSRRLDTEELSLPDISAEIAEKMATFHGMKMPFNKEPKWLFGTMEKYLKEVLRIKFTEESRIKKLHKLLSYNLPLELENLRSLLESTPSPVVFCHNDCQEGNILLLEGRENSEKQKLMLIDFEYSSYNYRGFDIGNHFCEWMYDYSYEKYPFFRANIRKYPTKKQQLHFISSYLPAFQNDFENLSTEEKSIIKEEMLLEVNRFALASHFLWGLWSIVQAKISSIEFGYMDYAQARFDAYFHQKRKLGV

COc1cc2c(NC3CCN(C(C)C)CC3)nc(C3CCCCC3)nc2cc1OCCCN1CCCC1 [UNC0638]
biosimilarity of UNC0638 and UNC0737 profiles (clustered together) [1]: > 90%
Biol.Sim. (%) ([1]; Conc 3.00 μM): 91%
Cell Count (%) ([1]; Conc 3.00 μM): 93%
Ind. (%) (% of parameters with significant changes) ([1]; Conc 3.00 μM): 73%
Cell Count (%) ([1]; Conc 5.00 μM): 86%
Ind. (%) (% of parameters with significant changes) ([1]; Conc 5.00 μM): 83%
Biol.Sim. (%) ([1]; Conc 5.00 μM, morphological fingerprint similarity (no value printed for UNC0737 5 μM)): 96%
stabilisation of CHKA (PISA) [2]: selective stabilisation of CHKA
effect_CETSA_Lysate (PISA amplitude), CHKA [2]: 0.202

COc1cc2c(N(C)C3CCN(C(C)C)CC3)nc(C3CCCCC3)nc2cc1OCCCN1CCCC1 [UNC0737]
biosimilarity of UNC0638 and UNC0737 profiles (clustered together) [1]: > 90%
Biol.Sim. (%) ([1]; Conc 3.00 μM): 94%
Cell Count (%) ([1]; Conc 3.00 μM): 86%
Ind. (%) (% of parameters with significant changes) ([1]; Conc 3.00 μM): 83%
Cell Count (%) ([1]; Conc 5.00 μM): 90%
Ind. (%) (% of parameters with significant changes) ([1]; Conc 5.00 μM): 86%
stabilisation of CHKA (PISA) [2]: selective stabilisation of CHKA
effect_CETSA_Lysate (PISA amplitude), CHKA [2]: 0.504

Source: publication PMC11811597, “Phenomics‐Based Discovery of Novel Orthosteric Choline Kinase Inhibitors” (Angewandte Chemie (International Ed. in English), 2025)
